Test [1] addresses T1, h-GABA-A α5β3γ2 (Homo sapiens, UniProt P18507+P31644). The experiment in a line: [3H]flumazenil competition binding assay, membranes of HEK293 cells expressing GABAA receptors. The conditions noted are these: displacement of [3H]-Flumazenil 0.5 nM, HEK293 cells expressing human receptors, mean of two determinations; Table 1. An outline of the steps: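 Membranes from HEK293 cells transiently expressing human α5β3γ2 GABAA receptors, in Krebs-tris buffer pH 7.5, competed against [3H]flumazenil for 1 hour at 4° C to equilibrium. Bound radioactivity collected on GF/C filters and counted by liquid scintillation; Ki values are means of two determinations.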
(In general: Loss of bound radioactivity is the signal in a displacement assay; it reports binding, not function.)

For test [2], the target named is T1, h-GABA-A α5β3γ2. The experiment in a line: Two-electrode voltage clamp electrophysiology in Xenopus laevis oocytes expressing GABAA receptors, modulation of GABA EC20 current. The class given is cell-based. On the set-up: host or cells: Xenopus laevis oocytes micro-injected with RNA transcripts of the subunits. The note with it: Table 1; for Efficacy (GABA) %: % modulation of GABA EC20 = 100*(Fold increase-1); for Fold increase h-GABA-A α5β3γ2 oocyte: test compound at approx. 30 fold its Ki, GABA at EC20. An outline of the steps: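 Human α5β3γ2 GABAA receptors were expressed in Xenopus oocytes by RNA injection, with γ2 RNA 5–10-fold higher, and recorded 3–5 days later by two-electrode voltage clamp at −80 mV at room temperature. The test compound, at about 30× its Ki, was co-applied during a second GABA EC20 pulse. Efficacy is the extremum of the point-by-point ratio to the first response, expressed as 100*(Fold increase−1).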
(In general: Two-electrode voltage clamp is typically applied to oocytes expressing channels or transporters.)

A word on the Ki: it is the dissociation constant of the complex between target and ligand, obtained from inhibition or displacement. A higher Ki goes with lower affinity.

For `Cc1ccc(-c2noc(C)c2Cn2ncc(N3CCN(CC(F)(F)F)CC3)cc2=O)cn1` [Example 31, 2-[[5-methyl-3-(6-methyl-3-pyridyl)isoxazol-4-yl]methyl]-5-[4-(2,2,2-trifluoroethyl)piperazin-1-yl]pyridazin-3-one], in test [1], the affinity corresponds to a Ki of 13.5 nM. Besides, in test [2], the “Efficacy (GABA) %” value was found to be 145% and the “Fold increase h-GABA-A α5β3γ2 oocyte” value was 2.45.

`Cc1ccc(-c2nocc2Cn2ncc(N3C[C@@H](C)O[C@@H](C)C3)cc2=O)cn1` [Example 32, 5-(cis-2,6-dimethylmorpholin-4-yl)-2-[[3-(6-methyl-3-pyridyl)isoxazol-4-yl]methyl]pyridazin-3-one] registered a Ki in test [1] of 12.7 nM. Besides, in test [2], the “Efficacy (GABA) %” value turned out to be 288% and the “Fold increase h-GABA-A α5β3γ2 oocyte” value turned out to be 3.88.

The molecule `Cc1ccc(-c2noc(C)c2Cn2ncc(N3C4COCC3C4)cc2=O)cn1` [Example 33, 2-[[5-methyl-3-(6-methyl-3-pyridyl)isoxazol-4-yl]methyl]-5-(3-oxa-6-azabicyclo[3.1.1]heptan-6-yl)pyridazin-3-one] gave a Ki in test [1] of 3.2 nM. In test [2], the “Efficacy (GABA) %” value stood at 150% and the “Fold increase h-GABA-A α5β3γ2 oocyte” value came out at 2.5.

As for `Cc1ccc(-c2noc(C)c2Cn2ncc(N3CCC(C#N)CC3)cc2=O)cn1` [Example 34, 1-[1-[[5-methyl-3-(6-methyl-3-pyridyl)isoxazol-4-yl]methyl]-6-oxo-pyridazin-4-yl]piperidine-4-carbonitrile], the affinity in test [1], expressed as Ki, was 4.3 nM. Also, in test [2], the “Efficacy (GABA) %” value came out at 222% and the “Fold increase h-GABA-A α5β3γ2 oocyte” value is 3.22.

Consider `Cc1ccc(-c2noc(C)c2Cn2ncc(N3C4CCC3COC4)cc2=O)cn1` [Example 35, 2-[[5-methyl-3-(6-methyl-3-pyridyl)isoxazol-4-yl]methyl]-5-(3-oxa-8-azabicyclo[3.2.1]octan-8-yl)pyridazin-3-one], for which affinity in test [1] was put at a Ki of 0.8 nM. In addition, in test [2], the “Efficacy (GABA) %” value is recorded as 179% and the “Fold increase h-GABA-A α5β3γ2 oocyte” value is 2.79.

The molecule `Cc1ccc(-c2noc(C)c2Cn2ncc(N3CCN(C4CC4)CC3)cc2=O)cn1` [Example 36, 5-(4-cyclopropylpiperazin-1-yl)-2-[[5-methyl-3-(6-methyl-3-pyridyl)isoxazol-4-yl]methyl]pyridazin-3-one] had a Ki in test [1] of 13.8 nM. For the same molecule, in test [2], the “Efficacy (GABA) %” value is recorded as 145% and the “Fold increase h-GABA-A α5β3γ2 oocyte” value turned out to be 2.45.

With `Cc1ccc(-c2noc(C)c2Cn2ncc(N3CC4(COC4)C3)cc2=O)cn1` [Example 38, 2-[[5-methyl-3-(6-methyl-3-pyridyl)isoxazol-4-yl]methyl]-5-(2-oxa-6-azaspiro[3.3]heptan-6-yl)pyridazin-3-one], in test [1], the inhibition constant (Ki) was found to be 38.4 nM. For the same molecule, in test [2], the “Efficacy (GABA) %” value turned out to be 181% and the “Fold increase h-GABA-A α5β3γ2 oocyte” value is 2.81.

`Cc1onc(-c2ccc(C(F)(F)F)nc2)c1Cn1ncc(N2C[C@@H](C)O[C@@H](C)C2)cc1=O` [Example 39, 5-(cis-2,6-dimethylmorpholin-4-yl)-2-[[5-methyl-3-[6-(trifluoromethyl)-3-pyridyl]isoxazol-4-yl]methyl]pyridazin-3-one] returned a Ki in test [1] of 3.2 nM. Moreover, in test [2], the “Efficacy (GABA) %” value is 198% and the “Fold increase h-GABA-A α5β3γ2 oocyte” value was 2.98.

In test [1], `Cc1onc(-c2ccc(C(F)(F)F)nc2)c1Cn1ncc(N2CCN(C(=O)C3(C)CC3)CC2)cc1=O` [Example 40, 5-[4-(1-methylcyclopropanecarbonyl)piperazin-1-yl]-2-[[5-methyl-3-[6-(trifluoromethyl)-3-pyridyl]isoxazol-4-yl]methyl]pyridazin-3-one] returned an inhibitory constant (Ki) of 43.3 nM. In test [2], the “Efficacy (GABA) %” value is listed as 250% and the “Fold increase h-GABA-A α5β3γ2 oocyte” value is 3.5.

As for `Cc1ccc(-c2noc(C)c2Cn2ncc(N3CCN4C(=O)CCC4C3)cc2=O)cn1` (stereo not drawn) [Example 43, 2-(1-((5-methyl-3-(6-methylpyridin-3-yl)isoxazol-4-yl)methyl)-6-oxo-1,6-dihydropyridazin-4-yl)hexahydropyrrolo[1,2-a]pyrazin-6(2H)-one], in test [1], the Ki came to 10 nM. Moreover, in test [2], the “Efficacy (GABA) %” value is reported as 174% and the “Fold increase h-GABA-A α5β3γ2 oocyte” value was 2.74.

`Cc1ccc(-c2noc(C)c2Cn2ncc(N3CCN4C(=O)OCC4C3)cc2=O)cn1` (stereo not drawn) [Example 44, 7-(1-((5-methyl-3-(6-methylpyridin-3-yl)isoxazol-4-yl)methyl)-6-oxo-1,6-dihydropyridazin-4-yl)tetrahydro-1H-oxazolo[3,4-a]pyrazin-3(5H)-one] showed a Ki in test [1] of 9.5 nM. For the same molecule, in test [2], the “Efficacy (GABA) %” value came out at 181% and the “Fold increase h-GABA-A α5β3γ2 oocyte” value was 2.81.

`Cc1ccc(-c2noc(C)c2Cn2ncc(N(C)C)cc2=O)cn1` [Example 45, 5-(dimethylamino)-2-((5-methyl-3-(6-methylpyridin-3-yl)isoxazol-4-yl)methyl)pyridazin-3(2H)-one] yielded a Ki in test [1] of 6.6 nM. For the same molecule, in test [2], the “Efficacy (GABA) %” value is listed as 103% and the “Fold increase h-GABA-A α5β3γ2 oocyte” value stood at 2.03.

Consider `Cc1ccc(-c2noc(C)c2Cn2ncc(N3CCC4(CC3)COC4)cc2=O)cn1` [Example 46, 2-[[5-methyl-3-(6-methyl-3-pyridyl)isoxazol-4-yl]methyl]-5-(2-oxa-7-azaspiro[3.5]nonan-7-yl)pyridazin-3-one], for which the affinity in test [1], expressed as Ki, was 15.2 nM. In test [2], the “Efficacy (GABA) %” value was determined as 107% and the “Fold increase h-GABA-A α5β3γ2 oocyte” value came to 2.07.

Consider `Cc1ccc(-c2noc(C)c2Cn2ncc(N3C[C@H]4COC[C@H]4C3)cc2=O)cn1` [Example 49, 5-[(3aR,6aS)-1,3,3a,4,6,6a-hexahydrofuro[3,4-c]pyrrol-5-yl]-2-[[5-methyl-3-(6-methyl-3-pyridyl)isoxazol-4-yl]methyl]pyridazin-3-one], for which, in test [1], the inhibition constant Ki was found to be 13 nM. In test [2], the “Efficacy (GABA) %” value was found to be 167% and the “Fold increase h-GABA-A α5β3γ2 oocyte” value is on record as 2.67.

In test [1], `Cc1ccc(-c2noc(C)c2Cn2ncc(N3CCN[C@H](C)C3)cc2=O)cn1` [Example 50, 2-[[5-methyl-3-(6-methyl-3-pyridyl)isoxazol-4-yl]methyl]-5-[(3R)-3-methylpiperazin-1-yl]pyridazin-3-one] came in with a Ki of 2.8 nM. Moreover, in test [2], the “Efficacy (GABA) %” value amounted to 187% and the “Fold increase h-GABA-A α5β3γ2 oocyte” value stood at 2.87.

Molecule `Cc1ccc(-c2noc(C)c2Cn2ncc(N3CCN[C@@H](C)C3)cc2=O)cn1` [Example 51, 2-[[5-methyl-3-(6-methyl-3-pyridyl)isoxazol-4-yl]methyl]-5-[(3S)-3-methylpiperazin-1-yl]pyridazin-3-one] showed a Ki in test [1] of 3.3 nM. In test [2], the “Efficacy (GABA) %” value is 182% and the “Fold increase h-GABA-A α5β3γ2 oocyte” value is 2.82.

Turning to `Cc1onc(-c2ncc(Cl)cc2F)c1Cn1ncc(N2C[C@@H](C)O[C@@H](C)C2)cc1=O` [Example 52, 2-[[3-(5-chloro-3-fluoro-2-pyridyl)-5-methyl-isoxazol-4-yl]methyl]-5-(cis-2,6-dimethylmorpholin-4-yl)pyridazin-3-one], in test [1], the inhibition constant (Ki) turned out to be 0.7 nM. Further, in test [2], the “Efficacy (GABA) %” value was 135% and the “Fold increase h-GABA-A α5β3γ2 oocyte” value is on record as 2.35.

Values taken from patent US11840528B2 (Hoffmann-La Roche Inc., priority 2018, dated 2023).
